Experimental data published in patent publication US6982252B2, “Inhibition of vacuolar proton ATPase activity and/or the modulation of acidic organelle function sensitizes cells to radiation, chemotherapy and biological agents” (Memorial Sloan-Kettering Cancer Center, priority 2000, dated 2006).
Values joined by “and” are separate entries in the source; they are usually repeats but may differ in a detail not shown here. Equal values may be shown once. Marks after values point to notes of the source that are not given here.

Columns and labels:
[1] = subcutaneous, doses smaller than 1 mg/kg/day, cited from earlier work
[2] = tested on: F and P-type ATPases; settings: cited from earlier work
[3] = tested on: MCF-7 (human breast adenocarcinoma); assay: Clonogenic survival (surviving fraction) of MCF-7 cells after radiation or chemotherapeutic agent; type: cell-based
[4] = target: T1, V-ATPase (Homo sapiens, UniProt P27449); settings: Gagliardi et al., 1999; cited from earlier work
T1 sequence (P27449 whole entry): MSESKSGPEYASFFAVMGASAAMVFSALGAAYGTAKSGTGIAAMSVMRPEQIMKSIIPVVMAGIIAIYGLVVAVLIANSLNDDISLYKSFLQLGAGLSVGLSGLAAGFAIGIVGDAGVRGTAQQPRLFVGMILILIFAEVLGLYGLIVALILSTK

[5] = cited from earlier work
[6] = target: T1, V-ATPase; settings: binding to V-ATPase; Drose and Altendorf, 1997; cited from earlier work
[7] = tested on: LoVo (human colon adenocarcinoma); assay: Clonogenic survival (surviving fraction) of LoVo cells after radiation or chemotherapeutic agent; type: cell-based
Method: MCF-7 (human breast adenocarcinoma), LoVo (human colon adenocarcinoma) and LNCaP (human prostate carcinoma) were obtained from the American Type Culture Collection. Cells were maintained as described in Paglin et al., 1997, Biochem. Biophs. Res. Comm. 237:678-684). Irradiation was carried out 48 hours post-plating (T0) at room temperature using a Cs-137 irradiator (Sheperd Mark-I, model 68, SN643) at a dose rate of 2.43-2.32 Gy/min. Bovine aortic endothelial cells were grown and treated with H2O2 as described in Haimovitz-Friedman et al., 1994, J. Exp. Med. 180:525-535 and Verhij et al., 1996, Nature 380:75-79. Phorbol 12-myristate 13-acetate (PMA; Alexis Biochemicals Corp., San Diego, Calif.) was dissolved in dimethyl sulfoxide (DMSO) and added to cells for the duration of one hour. The final DMSO concentration was 0.03%. The cells were then rinsed with warm growth medium before being returned to the incubator for an additional 48 hours.
Cells were plated in growth medium at a density of 30-90 cells per square centimeter and irradiated 22 hours later. Each experimental condition was done in quintet or triplicate. Cells were irradiated at room temperature in Cs-137 Irradiator (Sheperd Mark-I, Model 68, SN 643) at a rate of 2.43-2.32 Gy/min. […] For determination of their red to green ratio, colonies were processed as described above. For determination of surviving fractions cells were stained with crystal violet and colonies containing 50 cells or more were counted with a dissecting microscope. The surviving fraction was defined as the ratio between the plating efficiencies of irradiated and non-irradiated cells and was calculated at each dose level according to Hall and Phill (1994, […] for the Radiologist, 4th Edition, J. Lippincott Co., Philadelphia).

[8] = tested on: Capan-1 xenograft tumor; settings: subcutaneous, doses smaller than 1 mg/kg/day; cited from earlier work
[9] = tested on: DNA of irradiated MCF-7 cells; assay: DNA fragmentation by pulse field gel electrophoresis (PFGE); type: cell-based, human; settings: bafilomycin A1 (4 nM) added two days following 10 Gy, for 24 hours
Method: FIG. 6. Bafilomycin A1 enhances DNA fragmentation in irradiated cells: Cells were irradiated 48 hours post-plating and bafilomycin A1 (4 nM) was added 48 hours following irradiation, for the duration of 24 hours, from concentrated stock solution at dimethylsulfoxide (DMSO) to a final concentration of 4 nM. Control cells received the vehicle alone. Cells were harvested 72 hours following irradiation. Plug preparation and resolution of DNA was conducted according to Gilles et al. (2000, Blood 95:2930-2936). M-DNA size standard, lambda 50 kb ladder. A-Unirradiated controls. B-Cells irradiated with 10 Gy. C-Unirradiated cells incubated with 4 nM bafilomycin A1. D-Cells irradiated with 10 Gy and incubated with 4 nM bafilomycin A1. Window of DNA resolution was 20 kb-1000 kb. Arrow 1 points to sample origin. Arrow 2 points to zone of no resolution.
DNA extraction and electrophoresis on agarose gel was carried out according to Bose et al., 1995, Cell 82:405-414. DNA preparation and resolution with pulse field gel electrophoresis (PFGE) was conducted as described in Gilles et al., 2000, Blood 95:2930-2936 utilizing the CHEF Mapper (Bio-Rad, Richmond, Calif.). DNA strand breaks were assayed by the TUNEL method and analyzed by flow cytometry (Haimovitz-Friedman, 1994, J. Exp. Med. 180:525-535).

[10] = tested on: Capan-1 human pancreatic cancer cell line; settings: Capan-1 in vitro; cited from earlier work
[11] = subcutaneous, 1.4 mol/kg/day for 14 days

bafilomycin A1
histological examination of organs ([1]; four weeks treatment): did not affect the liver, pancreas, small intestine, kidney or lung
growth of nude mice ([1]; up to four weeks, Ohta et al., 1998): did not affect the growth
concentration range at which F and P-type ATPases activities are affected [2]: μM range
survival, column Adriamycin ([3]; Table 15, Bafilomycin 2 nM + 100 nM adriamycin, average of two plates): (0.56; 0.58)0.57*
cell survival, Bafilomycin A1 (2 nM) ([3]; Table 18, Bafilomycin A1 2 nM, Etoposide 0 μg/ml): 0.9 ± 0.09
decrease of survival in the presence of etoposide ([3]; bafilomycin 2 nM, etoposide 0.05 μg/ml, Table 18): 54%
concentration range that inhibits V-H+-ATPase activity without affecting F or P-type ATPases [4]: nM range
toxicity when injected intravenously ([5]; intravenous, Keeling, 1997): toxic
bone readsorption [5, 11]: increased bone readsorption
toxicity [5, 11]: non-toxic
tolerability when administered subcutaneously ([5]; subcutaneous): tolerated
Kd [6]: 10 nM
decrease of survival of cells exposed to Adriamycin ([7]; 2 nM bafilomycin, 100 nM Adriamycin): 22%
decrease of survival ([7]; 2 nM bafilomycin, 3 Gy, Table 11 and Table 12): 43% and 24%
decrease of resistance to Adriamycin ([7]; 2 nM bafilomycin, Adriamycin 100 nM, 48 hours): 35%
decrease of survival ([7]; 2 nm bafilomycin A1, 2 Gy): 25%
decrease of survival ([7]; 2 nm bafilomycin A1, 3 Gy): 30%
Surviving Fraction 0 Gy ([7]; Table 11, Bafilomycin A1 2 nM): 1.14 ± 0.09
Surviving Fraction 3 Gy ([7]; Table 11, Bafilomycin A1 2 nM, 3 Gy): 0.24 ± 0.08
Surviving Fraction 0 Gy ([7]; Table 11, Bafilomycin A1 4 nM): 1.01 ± 0.03
Surviving Fraction 3 Gy ([7]; Table 11, Bafilomycin A1 4 nM, 3 Gy): 0.23 ± 0.02
Surviving Fraction 0 Gy ([7]; Table 11, Bafilomycin A1 8 nM): 0.84 ± 0.12
Surviving Fraction 3 Gy ([7]; Table 11, Bafilomycin A1 8 nM, 3 Gy): 0.19 ± 0.04
Surviving Fraction 0 Gy ([7]; Table 12, Bafilomycin 2 nM): 0.92 ± 0.05
Surviving Fraction 3 Gy ([7]; Table 12, Bafilomycin 2 nM, 3 Gy): 0.16 ± 0.01
Surviving Fraction 0 Gy ([7]; Table 12, Bafilomycin 4 nM): 0.84 ± 0.03
Surviving Fraction 3 Gy ([7]; Table 12, Bafilomycin 4 nM, 3 Gy): 0.08 ± 0.02
Surviving Fraction 2 nM Bafilomycin ([7]; Table 13, 2 nM Bafilomycin, Dose 0 Gy): 0.78 ± 0.05
Surviving Fraction 2 nM Bafilomycin ([7]; Table 13, 2 nM Bafilomycin, Dose 2 Gy): 0.24 ± 0.03
Surviving Fraction 2 nM Bafilomycin ([7]; Table 13, 2 nM Bafilomycin, Dose 3 Gy): 0.11 ± 0.03
Surviving Fraction 2 nM Bafilomycin ([7]; Table 14, 2 nM Bafilomycin + Adriamycin 50 nM): 0.73 ± 0.08
Surviving Fraction 2 nM Bafilomycin ([7]; Table 14, 2 nM Bafilomycin + Adriamycin 100 nM): 0.60 ± 0.05
Surviving Fraction 2 nM Bafilomycin ([7]; Table 14, 2 nM Bafilomycin + Adriamycin 150 nM): 0.38 ± 0.03
Surviving Fraction 2 nM Bafilomycin ([7]; Table 14, 2 nM Bafilomycin, Adriamycin 0 nM): 0.93 ± 0.05
survival, Adriamycin 100 nM ([7]; Table 17, Bafilomycin A1 2 nM + Adriamycin 100 nM, 48 hours): 0.65 ± 0.05
survival (head of column empty) ([7]; Table 17, Bafilomycin A1 2 nM alone, 48 hours): 0.86 ± 0.04
survival, Adriamycin 100 nM ([7]; Table 17, Bafilomycin A1 4 nM + Adriamycin 100 nM, 48 hours): 0.4 ± 0.01
survival (head of column empty) ([7]; Table 17, Bafilomycin A1 4 nM alone, 48 hours): 0.61 ± 0.04
cell survival, Bafilomycin (2 nM) ([7]; Table 19, Bafilomycin 2 nM + Etoposide 0.05 μg/ml): 0.59 ± 0.08
cell survival, Bafilomycin (2 nM) ([7]; Table 19, Bafilomycin 2 nM, Etoposide 0 μg/ml): 1.16 ± 0.07
decrease of survival in the presence of etoposide ([7]; bafilomycin 2 nM, etoposide 0.05 μg/ml): 25%
effect on Capan-1 xenograft tumor [8]: apoptotic death of Capan-1 cells in their xenograft tumor and overall shrinkage of the tumors
DNA cleavage into large fragments (20-1000 kb) [9]: dramatically increased DNA clevage into large fragments
concentrations reported to induce apoptosis [10]: greater than 10 nM
